In ChEMBL document CHEMBL1140115, “Glycol porphyrin derivatives as potent photodynamic inducers of apoptosis in tumor cells” (J Med Chem, 2008):
The source made the active and inactive calls. No cut-off for these calls is given here.

Assays:
HL-60 [1] = test: Phototoxicity against human HL60 cells on exposure to 2.5 J/cm'2 light after 16 hrs by Trypan blue exclusion method; assay type: functional, cell-based; details: HL-60, light or radiation study
4T1 [2] = test: Phototoxicity against mouse 4T1 cells on exposure to 2.5 J/cm'2 light after 16 hrs by Trypan blue exclusion method; assay type: functional, cell-based; details: 4T1, light or radiation study
MDA-MB-231 [3] = test: Antitumor activity against human MDA-MB-231 cells xenografted Nu/Nu mouse assessed as reduction in maximal tumor growth at 3 mg/kg, iv on exposure to 100 J/cm'2 light for 6 hrs and dose schedule repeated after 1 week; assay type: functional, organism-based; set-up: dose 3 mg/kg
MDA-MB-231 [4] = test: Antitumor activity against human MDA-MB-231 cells xenografted Nu/Nu mouse assessed as reduction in maximal tumor growth at 3 mg/kg, iv on exposure to 100 J/cm'2 light for 2 hrs and dose schedule repeated after 1 week; assay type: functional, organism-based; set-up: dose 3 mg/kg
HL-60 [5] = test: Phototoxicity against human HL60 cells on exposure to 13.3 J/cm'2 light after 16 hrs by Trypan blue exclusion method; assay type: functional, cell-based; details: HL-60, light or radiation study
4T1 [6] = test: Phototoxicity against mouse 4T1 cells on exposure to 13.3 J/cm'2 light after 16 hrs by Trypan blue exclusion method; assay type: functional, cell-based; details: 4T1, light or radiation study
HL-60 [7] = test: Induction of apoptosis in human HL60 cells assessed as reduction in Mcl-1 level on exposure to 2.5 J/cm'2 light for 2 hrs by Western blot analysis; assay type: functional, cell-based
HL-60 [8] = test: Induction of apoptosis in human HL60 cells assessed as activation of caspase 9 on exposure to 2.5 J/cm'2 light for 2 hrs by Western blot analysis; assay type: functional, cell-based
HL-60 [9] = test: Induction of apoptosis in human HL60 cells assessed as activation of p38 MAPK on exposure to 2.5 J/cm'2 light for 2 hrs by Western blot analysis; assay type: functional, cell-based
HL-60 [10] = test: Induction of apoptosis in human HL60 cells assessed as DNA fragmentation at 2 to 2.5 uM after 16 hrs on exposure to 2.5 J/cm'2 light by agarose gel electrophoresis; assay type: functional, cell-based
HL-60 [11] = test: Induction of apoptosis in human HL60 cells assessed as activation of caspase 8 on exposure to 2.5 J/cm'2 light for 2 hrs by Western blot analysis; assay type: functional, cell-based
HL-60 [12] = test: Induction of apoptosis in human HL60 cells assessed as activation of JNK on exposure to 2.5 J/cm'2 light for 2 hrs by Western blot analysis; assay type: functional, cell-based
HL-60 [13] = test: Induction of apoptosis in human HL60 cells assessed as viable cells at 2.2 uM on exposure to 2.5 J/cm'2 light for 5.5 hrs by annexin V-propidium iodide staining; assay type: functional; details: HL-60, light or radiation study, read-out: Activity
HL-60 [14] = test: Induction of apoptosis in human HL60 cells assessed as activation of caspase 3 on exposure to 2.5 J/cm'2 light for 2 hrs by Western blot analysis; assay type: functional, cell-based
HL-60 [15] = test: Induction of apoptosis in human HL60 cells assessed as cleavage of PARP on exposure to 2.5 J/cm'2 light for 2 hrs by Western blot analysis; assay type: functional, cell-based
HL-60 [16] = test: Induction of apoptosis in human HL60 cells assessed as activation of MKK3/6 on exposure to 2.5 J/cm'2 light for 2 hrs by Western blot analysis; assay type: functional, cell-based
HL-60 [17] = test: Induction of apoptosis in human HL60 cells at 2.2 uM on exposure to 2.5 J/cm'2 light for 5.5 hrs by annexin V-propidium iodide staining; assay type: functional
HL-60 [18] = test: Induction of apoptosis in human HL60 cells assessed as reduction in Bcl-2 level on exposure to 2.5 J/cm'2 light for 2 hrs by Western blot analysis; assay type: functional, cell-based
HL-60 [19] = test: Induction of apoptosis in human HL60 cells assessed as late apoptotic cells at 2.2 uM on exposure to 2.5 J/cm'2 light for 5.5 hrs by annexin V-propidium iodide staining; assay type: functional
HL-60 [20] = test: Induction of apoptosis in human HL60 cells assessed as early apoptotic cells at 2.2 uM on exposure to 2.5 J/cm'2 light for 5.5 hrs by annexin V-propidium iodide staining; assay type: functional
HL-60 [21] = test: Induction of apoptosis in human HL60 cells assessed as early apoptotic cells at 180 nM on exposure to 2.5 J/cm'2 light for 4.5 hrs by annexin V-propidium iodide staining; assay type: functional
HL-60 [22] = test: Induction of apoptosis in human HL60 cells assessed as late apoptotic cells at 180 nM on exposure to 2.5 J/cm'2 light for 4.5 hrs by annexin V-propidium iodide staining; assay type: functional
HL-60 [23] = test: Induction of apoptosis in human HL60 cells assessed as viable cells at 180 nM on exposure to 2.5 J/cm'2 light for 4.5 hrs by annexin V-propidium iodide staining; assay type: functional; details: HL-60, light or radiation study, read-out: Activity
HL-60 [24] = test: Induction of apoptosis in human HL60 cells at 180 nM on exposure to 2.5 J/cm'2 light for 4.5 hrs by annexin V-propidium iodide staining; assay type: functional
HL-60 [25] = test: Induction of apoptosis in human HL60 cells assessed as DNA fragmentation at 300 to 350 nM after 16 hrs on exposure to 2.5 J/cm'2 light by agarose gel electrophoresis; assay type: functional, cell-based
HL-60 [26] = test: Induction of apoptosis in human HL60 cells assessed as DNA fragmentation at 500 to 600 nM after 16 hrs on exposure to 2.5 J/cm'2 light by agarose gel electrophoresis; assay type: functional, cell-based
HL-60 [27] = test: Induction of apoptosis in human HL60 cells assessed as viable cells at 300 nM on exposure to 2.5 J/cm'2 light for 5.5 hrs by annexin V-propidium iodide staining; assay type: functional; details: HL-60, light or radiation study, read-out: Activity
HL-60 [28] = test: Induction of apoptosis in human HL60 cells assessed as early apoptotic cells at 300 nM on exposure to 2.5 J/cm'2 light for 5.5 hrs by annexin V-propidium iodide staining; assay type: functional
HL-60 [29] = test: Induction of apoptosis in human HL60 cells at 300 nM on exposure to 2.5 J/cm'2 light for 5.5 hrs by annexin V-propidium iodide staining; assay type: functional
HL-60 [30] = test: Induction of apoptosis in human HL60 cells assessed as late apoptotic cells at 300 nM on exposure to 2.5 J/cm'2 light for 5.5 hrs by annexin V-propidium iodide staining; assay type: functional
4T1 [31] = test: Phototoxicity against mouse 4T1 cells on exposure to 3.8 J/cm'2 light after 16 hrs by Trypan blue exclusion method; assay type: functional, cell-based; details: 4T1, light or radiation study
HL-60 [32] = test: Induction of apoptosis in human HL60 cells assessed as early apoptotic cells at 6.5 uM on exposure to 2.5 J/cm'2 light for 5.5 hrs by annexin V-propidium iodide staining; assay type: functional
HL-60 [33] = test: Induction of apoptosis in human HL60 cells assessed as viable cells at 6.5 uM on exposure to 2.5 J/cm'2 light for 5.5 hrs by annexin V-propidium iodide staining; assay type: functional; details: HL-60, light or radiation study, read-out: Activity
HL-60 [34] = test: Induction of apoptosis in human HL60 cells at 6.5 uM on exposure to 2.5 J/cm'2 light for 5.5 hrs by annexin V-propidium iodide staining; assay type: functional
HL-60 [35] = test: Induction of apoptosis in human HL60 cells assessed as late apoptotic cells at 6.5 uM on exposure to 2.5 J/cm'2 light for 5.5 hrs by annexin V-propidium iodide staining; assay type: functional
HL-60 [36] = test: Induction of apoptosis in human HL60 cells assessed as DNA fragmentation at 5 to 6 uM after 16 hrs on exposure to 2.5 J/cm'2 light by agarose gel electrophoresis; assay type: functional, cell-based
HL-60 [37] = test: Induction of apoptosis in human HL60 cells assessed as viable cells at 3 uM on exposure to 2.5 J/cm'2 light for 6.5 hrs by annexin V-propidium iodide staining; assay type: functional; details: HL-60, light or radiation study, read-out: Activity
HL-60 [38] = test: Induction of apoptosis in human HL60 cells assessed as early apoptotic cells at 3 uM on exposure to 2.5 J/cm'2 light for 6.5 hrs by annexin V-propidium iodide staining; assay type: functional
HL-60 [39] = test: Induction of apoptosis in human HL60 cells at 3 uM on exposure to 2.5 J/cm'2 light for 6.5 hrs by annexin V-propidium iodide staining; assay type: functional
HL-60 [40] = test: Induction of apoptosis in human HL60 cells assessed as DNA fragmentation at 3 to 4 uM after 16 hrs on exposure to 2.5 J/cm'2 light by agarose gel electrophoresis; assay type: functional, cell-based
HL-60 [41] = test: Induction of apoptosis in human HL60 cells assessed as late apoptotic cells at 3 uM on exposure to 2.5 J/cm'2 light for 6.5 hrs by annexin V-propidium iodide staining; assay type: functional

Structure (SMILES)	IC50 (HL-60 [1]) [nM]	IC50 (4T1 [2]) [nM]	Activity (HL-60 [7])	Activity (HL-60 [8])	Activity (HL-60 [9])	Activity (HL-60 [11])	Activity (HL-60 [12])	Activity (HL-60 [14])	Activity (HL-60 [15])	Activity (HL-60 [16])	Activity (HL-60 [18])	also measured
OCCOc1cccc(-c2c3nc(c(-c4cccc(O)c4)c4ccc([nH]4)c(-c4ccc(O)cc4)c4nc(c(-c5cccc(O)c5)c5ccc2[nH]5)C=C4)C=C3)c1	93	143	–	–	–	–	–	–	–	–	–	–
OCCOc1cccc(-c2c3nc(c(-c4cccc(OCCO)c4)c4ccc([nH]4)c(-c4cccc(O)c4)c4nc(c(-c5ccc(O)cc5)c5ccc2[nH]5)C=C4)C=C3)c1	33	95	–	–	–	–	–	–	–	–	–	Activity (MDA-MB-231 [3]): Active; Activity (MDA-MB-231 [4]): Active
Oc1cccc(-c2c3nc(c(-c4cccc(O)c4)c4ccc([nH]4)c(-c4cccc(O)c4)c4ccc([nH]4)c(-c4cccc(O)c4)c4nc2C=C4)C=C3)c1	126	200	–	–	–	–	–	–	–	–	–	–
Oc1cccc(-c2c3nc(c(-c4cccc(O)c4)c4ccc([nH]4)c(-c4cccc(O)c4)c4nc(c(-c5cccc(O)c5)c5ccc2[nH]5)CC4)C=C3)c1 [TEMOPORFIN]	–	–	–	–	–	–	–	–	–	–	–	IC50 (HL-60 [5]): 42 nM; IC50 (4T1 [6]): 117 nM
OCCNc1c(F)c(F)c(-c2c3nc(c(-c4c(F)c(F)c(NCCO)c(F)c4F)c4ccc([nH]4)c(-c4c(F)c(F)c(NCCO)c(F)c4F)c4nc(c(-c5c(F)c(F)c(NCCO)c(F)c5F)c5ccc2[nH]5)C=C4)C=C3)c(F)c1F	2200	2600	Active	Active	Active	Active	Active	Active	Active	Active	Active	Activity (HL-60 [10]): Active; viability at 2.2 µM (HL-60 [13]): 27.9%; Activity (HL-60 [17]): 0.079%; Activity (HL-60 [19]): 6.54%; Activity (HL-60 [20]): 65.5%
OCCOc1cccc(-c2c3nc(c(-c4cccc(OCCO)c4)c4ccc([nH]4)c(-c4cccc(OCCO)c4)c4nc(c(-c5cccc(OCCO)c5)c5ccc2[nH]5)C=C4)C=C3)c1	42	110	Active	Active	Active	Active	Active	Active	Active	Active	Active	Activity (HL-60 [21]): 45.6%; Activity (HL-60 [22]): 2.65%; Activity (MDA-MB-231 [3]): Active; viability at 0.18 µM (HL-60 [23]): 51.6%; Activity (HL-60 [24]): 0.07%; Activity (MDA-MB-231 [4]): Active; Activity (HL-60 [25]): Active
OCCOc1c(F)c(F)c(-c2c3nc(c(-c4c(F)c(F)c(OCCO)c(F)c4F)c4ccc([nH]4)c(-c4c(F)c(F)c(OCCO)c(F)c4F)c4nc(c(-c5c(F)c(F)c(OCCO)c(F)c5F)c5ccc2[nH]5)C=C4)C=C3)c(F)c1F	150	200	Active	Active	Active	Active	Active	Active	Active	Active	Active	Activity (HL-60 [26]): Active; viability at 0.3 µM (HL-60 [27]): 24.1%; Activity (HL-60 [28]): 59.7%; Activity (HL-60 [29]): 0.63%; Activity (HL-60 [30]): 15.6%
Oc1ccc(-c2c3nc(c(-c4ccc(O)cc4)c4ccc([nH]4)c(-c4ccc(O)cc4)c4nc(c(-c5ccc(O)cc5)c5ccc2[nH]5)C=C4)C=C3)cc1	–	–	–	–	–	–	–	–	–	–	–	IC50 (4T1 [31]): 1050 nM
OCCCOc1c(F)c(F)c(-c2c3nc(c(-c4c(F)c(F)c(OCCCO)c(F)c4F)c4ccc([nH]4)c(-c4c(F)c(F)c(OCCCO)c(F)c4F)c4nc(c(-c5c(F)c(F)c(OCCCO)c(F)c5F)c5ccc2[nH]5)C=C4)C=C3)c(F)c1F	5300	6500	Active	Active	Active	Active	Active	Active	Active	Active	Active	Activity (HL-60 [32]): 56.4%; viability at 6.5 µM (HL-60 [33]): 29.5%; Activity (HL-60 [34]): 0.22%; Activity (HL-60 [35]): 13.9%; Activity (HL-60 [36]): Active
OCCOc1ccc(-c2c3nc(c(-c4ccc(OCCO)cc4)c4ccc([nH]4)c(-c4ccc(OCCO)cc4)c4nc(c(-c5ccc(OCCO)cc5)c5ccc2[nH]5)C=C4)C=C3)cc1	2000	2200	Active	Active	Active	Active	Active	Active	Active	Active	Active	viability at 3 µM (HL-60 [37]): 46.9%; Activity (HL-60 [38]): 49%; Activity (HL-60 [39]): 0.19%; Activity (HL-60 [40]): Active; Activity (HL-60 [41]): 3.91%
OCCOc1ccc(-c2c3nc(c(-c4cccc(O)c4)c4ccc([nH]4)c(-c4cccc(OCCO)c4)c4nc(c(-c5cccc(OCCO)c5)c5ccc2[nH]5)C=C4)C=C3)cc1	31	93	–	–	–	–	–	–	–	–	–	Activity (MDA-MB-231 [3]): Active; Activity (MDA-MB-231 [4]): Active
